Key:
[1] = Cardiotoxicity in guinea pig assessed as increase in QRS interval at 20 to 50 mg/kg, iv administered continuously for 20 min by ECG analysis; assay type: toxicity, organism-based, Cavia porcellus; settings: in vivo, dose 20-50 mg/kg
[2] = MRT in Beagle dog at […], iv measured after 24 hrs by LC-MS/MS analysis; assay type: ADME, organism-based, Canis lupus familiaris; settings: in vivo, dose 0.25 mg/kg
[3] = Cardiotoxicity in guinea pig assessed as increase in QTc interval at 20 to 50 mg/kg, iv administered continuously for 20 min by ECG analysis; assay type: toxicity, organism-based, Cavia porcellus; settings: in vivo, dose 20-50 mg/kg
[4] = AUC in Wistar-Han rat at 50 mg/kg by LC-MS/MS analysis; assay type: ADME, organism-based; parameters: dose 50 mg/kg; settings: in vivo
mouse BCRP = experiment: Efflux ratio of apparent permeability across basolateral to apical over apical to basolateral side in MDCK-II cells transfected with mouse BCRP incubated for 3 hrs by LC-MS/MS analysis; settings: dog
[5] = MRT in rhesus monkey at 1 mg/kg, iv measured after 24 hrs by LC-MS/MS analysis; assay type: ADME, organism-based, Macaca mulatta; settings: in vivo
[6] = Intrinsic clearance in rhesus monkey at 1 mg/kg, iv measured after 24 hrs by LC-MS/MS analysis; assay type: ADME, organism-based, Macaca mulatta; settings: in vivo
[7] = Total clearance in Beagle dog at […], iv measured after 24 hrs by LC-MS/MS analysis; assay type: ADME, organism-based, Canis lupus familiaris; settings: in vivo, dose 0.25 mg/kg
rat Mdr1a P-gp = experiment: Apparent permeability across apical to basolateral side in LLC-PK1 cells transfected with rat Mdr1a P-gp incubated for 3 hrs by LC-MS/MS analysis; settings: pig
[8] = Lipophilicity, logD of compound at pH 7 by HT-HPLC/DAD analysis; assay type: physicochemical; settings: buffer
rat Mdrl1 P-gp = experiment: Efflux ratio of apparent permeability across basolateral to apical over apical to basolateral side in MDCK cells transfected with rat Mdrl1 P-gp incubated for 3 hrs by LC-MS/MS analysis; settings: dog, MDCK-MDR1
[9] = Total clearance in Wistar-Han rat at 2 mg/kg, iv measured after 24 hrs by LC-MS/MS analysis; assay type: ADME, organism-based; settings: in vivo
[10] = Drug metabolism in dog assessed as amide hydrolysis mediated metabolite formation by MetID analysis; assay type: ADME, Canis lupus familiaris
[11] = Toxicity in Wistar-Han rat assessed as tolerance at 50 to 300 mg/kg, qd; assay type: organism-based; settings: in vivo, dose 50-300 mg/kg
[12] = target: Voltage-gated inwardly rectifying potassium channel KCNH2 (Homo sapiens, UniProt Q12809); experiment: (§1) Inhibition of hERG expressed in CHO cells by QPatch voltage clamp assay
hERG = hERG (Homo sapiens, UniProt Q12809); experiment: as §1; settings: human, CHO cells expressing hERG
[13] = Oral bioavailability in Wistar-Han rat at 5 mg/kg measured after 24 hrs by LC-MS/MS analysis; assay type: ADME, organism-based; settings: in vivo
[14] = Oral bioavailability in Beagle dog at 1 mg/kg measured after 24 hrs by LC-MS/MS analysis; assay type: ADME, organism-based, Canis lupus familiaris; settings: in vivo
[15] = target: Voltage-dependent L-type calcium channel subunit alpha-1C (Homo sapiens, UniProt Q13936); experiment: Inhibition of human Cav1.2
[16] = MRT in Wistar-Han rat at 2 mg/kg, iv measured after 24 hrs by LC-MS/MS analysis; assay type: ADME, organism-based; settings: in vivo
[17] = target: Leucine-rich repeat serine/threonine-protein kinase 2 (Homo sapiens) (UniProt Q5S007); experiment: Inhibition of LRRK2 in human PBMC using LRRKtide peptide as substrate assessed as Ser935 dephosphorylation preincubated with compound for 15 mins followed by substrate addition and measured after 90 mins in presence of ATP by TR-FRET assay; assay type: cell-based; settings: time 105.0 min
[18] = Total clearance in rhesus monkey at 1 mg/kg, iv measured after 24 hrs by LC-MS/MS analysis; assay type: ADME, organism-based, Macaca mulatta; settings: in vivo
[19] = Unbound brain-to-plasma concentration ratio in iv dosed Wistar-Han rat administered as cassette dose by LC-MS/MS analysis; assay type: ADME, organism-based; settings: read-out: K(p,uu,brain)
[20] = Intrinsic clearance in Wistar-Han rat at 2 mg/kg, iv measured after 24 hrs by LC-MS/MS analysis; assay type: ADME, organism-based; settings: in vivo
Nav1.5 = Nav1.5 (Homo sapiens, UniProt Q14524); experiment: (§2) Inhibition of human Nav1.5 expressed in HEK293 cells by QPatch voltage clamp assay; assay type: cell-based; settings: human, HEK293 cells expressing human Nav1.5
Chain of Nav1.5 (Q14524 whole entry): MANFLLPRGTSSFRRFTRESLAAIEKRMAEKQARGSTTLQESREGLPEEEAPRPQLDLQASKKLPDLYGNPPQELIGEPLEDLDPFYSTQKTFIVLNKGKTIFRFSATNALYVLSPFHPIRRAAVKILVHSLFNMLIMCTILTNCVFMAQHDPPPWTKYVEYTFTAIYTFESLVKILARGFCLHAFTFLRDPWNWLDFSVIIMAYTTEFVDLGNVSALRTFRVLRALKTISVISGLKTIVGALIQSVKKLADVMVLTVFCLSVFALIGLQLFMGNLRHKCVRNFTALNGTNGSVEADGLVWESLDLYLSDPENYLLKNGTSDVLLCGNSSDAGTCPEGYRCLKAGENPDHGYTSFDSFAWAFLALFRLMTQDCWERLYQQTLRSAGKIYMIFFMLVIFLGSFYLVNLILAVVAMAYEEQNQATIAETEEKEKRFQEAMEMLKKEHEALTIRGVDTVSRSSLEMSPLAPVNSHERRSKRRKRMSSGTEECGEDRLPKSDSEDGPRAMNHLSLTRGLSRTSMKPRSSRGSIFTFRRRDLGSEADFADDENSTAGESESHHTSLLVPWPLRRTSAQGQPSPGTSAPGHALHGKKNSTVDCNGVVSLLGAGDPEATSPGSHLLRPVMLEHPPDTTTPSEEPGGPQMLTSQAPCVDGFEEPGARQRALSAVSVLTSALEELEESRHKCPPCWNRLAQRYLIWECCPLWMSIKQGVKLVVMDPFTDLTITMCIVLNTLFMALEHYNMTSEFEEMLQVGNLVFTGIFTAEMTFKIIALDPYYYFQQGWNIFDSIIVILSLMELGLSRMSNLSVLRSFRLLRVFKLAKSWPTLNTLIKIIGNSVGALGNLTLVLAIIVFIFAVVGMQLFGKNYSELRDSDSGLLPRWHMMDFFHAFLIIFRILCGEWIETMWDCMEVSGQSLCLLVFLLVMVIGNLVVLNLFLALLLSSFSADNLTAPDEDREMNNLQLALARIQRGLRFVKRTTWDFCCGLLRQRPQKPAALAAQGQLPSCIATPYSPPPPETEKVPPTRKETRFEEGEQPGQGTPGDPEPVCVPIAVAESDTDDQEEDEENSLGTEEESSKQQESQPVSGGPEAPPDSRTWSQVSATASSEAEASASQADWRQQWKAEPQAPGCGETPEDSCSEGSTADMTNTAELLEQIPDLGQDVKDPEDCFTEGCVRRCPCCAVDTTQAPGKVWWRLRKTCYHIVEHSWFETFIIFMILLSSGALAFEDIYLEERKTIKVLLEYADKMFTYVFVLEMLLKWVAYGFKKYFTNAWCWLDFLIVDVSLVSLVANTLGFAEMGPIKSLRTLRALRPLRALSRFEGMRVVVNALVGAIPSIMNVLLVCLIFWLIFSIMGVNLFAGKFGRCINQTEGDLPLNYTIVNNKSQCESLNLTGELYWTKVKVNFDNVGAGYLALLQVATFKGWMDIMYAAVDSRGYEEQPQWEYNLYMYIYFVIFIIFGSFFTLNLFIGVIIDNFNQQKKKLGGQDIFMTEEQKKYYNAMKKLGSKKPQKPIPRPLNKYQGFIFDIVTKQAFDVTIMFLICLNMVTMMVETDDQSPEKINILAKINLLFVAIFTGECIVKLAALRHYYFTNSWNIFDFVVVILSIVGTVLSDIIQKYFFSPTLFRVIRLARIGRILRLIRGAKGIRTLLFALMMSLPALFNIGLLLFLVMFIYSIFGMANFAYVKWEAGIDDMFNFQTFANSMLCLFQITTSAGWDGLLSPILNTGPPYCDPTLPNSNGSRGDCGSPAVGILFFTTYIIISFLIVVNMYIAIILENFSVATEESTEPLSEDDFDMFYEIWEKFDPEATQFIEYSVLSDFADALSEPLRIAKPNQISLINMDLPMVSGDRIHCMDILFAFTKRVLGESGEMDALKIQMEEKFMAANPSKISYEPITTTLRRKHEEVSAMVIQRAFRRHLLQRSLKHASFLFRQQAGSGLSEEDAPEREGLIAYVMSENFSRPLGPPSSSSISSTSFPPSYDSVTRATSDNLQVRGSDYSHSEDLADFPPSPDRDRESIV

[21] = target: Sodium channel protein type 5 subunit alpha (Homo sapiens, UniProt Q14524); experiment: as §2; assay type: cell-based
Chain of Sodium channel protein type 5 subunit alpha (Q14524 whole entry): as above

[22] = AUC in Wistar-Han rat at 300 mg/kg by LC-MS/MS analysis; assay type: ADME, organism-based; parameters: dose 300 mg/kg; settings: in vivo
[23] = target: KCNQ1/KCNE1 (IKs, Kv7.1/MinK) (Homo sapiens, UniProt P15382+P51787); experiment: Inhibition of human KCNQ1/KCNE1 expressed in HEK293 cells at 30 uM by QPatch voltage clamp assay relative to control; assay type: cell-based; settings: HEK293 cells expressing human KCNQ1/KCNE1
[24] = Cardiotoxicity in guinea pig assessed as increase in PR interval at 20 to 50 mg/kg, iv administered continuously for 20 min by ECG analysis; assay type: toxicity, organism-based, Cavia porcellus; settings: in vivo, dose 20-50 mg/kg
[25] = target: Leucine-rich repeat serine/threonine-protein kinase 2 (Homo sapiens, UniProt Q5S007, G2019S); experiment: Inhibition of recombinant N-terminal GST-fused LRRK2 […] mutant (970 to 2527 residues) (unknown origin) using LRRKtide peptide as substrate assessed as inhibition of substrate phosphorylation preincubated with compound for 15 mins followed by substrate addition and measured after 90 mins in presence of ATP by TR-FRET assay
[26] = Intrinsic clearance in Beagle dog at […], iv measured after 24 hrs by LC-MS/MS analysis; assay type: ADME, organism-based, Canis lupus familiaris; settings: in vivo, dose 0.25 mg/kg
[27] = target: MAP/microtubule affinity-regulating kinase 3 (Homo sapiens, UniProt P27448); experiment: Inhibition of recombinant human full length MARK3 expressed in insect cells using CHKtide as substrate preincubated with compound for 15 mins followed by substrate addition and measured after 15 mins in the presence of ATP by scintillation based radiometric LeadHunter assay
Chain of MAP/microtubule affinity-regulating kinase 3 (P27448 whole entry): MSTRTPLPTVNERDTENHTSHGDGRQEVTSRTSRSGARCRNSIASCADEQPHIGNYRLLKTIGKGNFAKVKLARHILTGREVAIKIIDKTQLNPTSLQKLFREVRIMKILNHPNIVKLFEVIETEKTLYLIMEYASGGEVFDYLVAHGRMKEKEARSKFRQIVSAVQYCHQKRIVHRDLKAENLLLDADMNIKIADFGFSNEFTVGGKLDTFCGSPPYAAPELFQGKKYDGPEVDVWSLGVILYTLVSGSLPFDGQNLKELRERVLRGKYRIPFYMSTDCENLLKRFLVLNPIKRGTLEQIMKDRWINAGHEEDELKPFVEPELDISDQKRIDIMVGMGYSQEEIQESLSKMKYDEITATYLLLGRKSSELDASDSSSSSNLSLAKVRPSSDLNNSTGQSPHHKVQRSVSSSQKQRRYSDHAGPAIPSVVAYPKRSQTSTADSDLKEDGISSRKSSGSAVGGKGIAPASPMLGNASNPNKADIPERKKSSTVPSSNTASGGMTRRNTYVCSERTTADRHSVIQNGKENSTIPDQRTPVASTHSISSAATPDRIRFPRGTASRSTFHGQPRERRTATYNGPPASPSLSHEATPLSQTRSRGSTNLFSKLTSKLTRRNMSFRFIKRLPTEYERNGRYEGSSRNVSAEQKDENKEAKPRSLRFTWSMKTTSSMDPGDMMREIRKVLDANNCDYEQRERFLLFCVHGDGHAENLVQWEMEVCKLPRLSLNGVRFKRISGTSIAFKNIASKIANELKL

[28] = Oral bioavailability in rhesus monkey at 2 mg/kg measured after 24 hrs by LC-MS/MS analysis; assay type: ADME, organism-based, Macaca mulatta; settings: in vivo

## C[C@@]1(N2CCC(c3cc4cc(NC(=O)C5CC56CC6)ncc4cc3Cl)CC2)COC[C@@H]1O (stereo partly drawn)
[1]
  Activity: Toxic
[2]
  MRT at 24 h: 33 h
[3]
  Activity: Toxic
[4]
  AUC: 111 µM·h
Mouse BCRP
  efflux ratio at 3 h: 1.1
[5]
  MRT: 10 h
[6]
  CL: 341 mL/min/kg
[7]
  clearance at 24 h: 9 mL/min/kg
Rat Mdr1a P-gp
  Papp A→B at 3 h: 30 ×10⁻⁶ cm/s
[8]
  logD: 3
Rat Mdrl1 P-gp
  efflux ratio at 3 h: 1.5
[9]
  clearance: 11 mL/min/kg
[10]
  Drug metabolism: Metabolite_Notdetected
[11]
  Activity: Non-Toxic
[12]
  IC50: 3.7 µM
hERG
  IC20: 1.3 µM
[13]
  bioavailability: 100%
[14]
  bioavailability: 81%
[15]
  inhibition (INH): Not Active
[16]
  MRT: 9 h
[17]
  fIC50: 2.8 nM
[18]
  clearance: 13 mL/min/kg
[19]
  Kp uu: 0.6
[20]
  CL: 271 mL/min/kg
Nav1.5
  IC20: 10 µM
[21]
  IC50: 28 µM
[22]
  AUC: 458 µM·h
[23]
  inhibition at 30 µM: 15%
[24]
  Activity: Toxic
[25]
  IC50: 0.003 µM
[26]
  CL: 341 mL/min/kg
[27]
  IC50: 0.029 µM
[28]
  bioavailability: 21%
